The values below come from patent US20090203594A1, “Anticancer peptide” (priority 2004, published 2009).

The subject of one assay is SWB-39 glioma. Description: Killing of SWB-39 glioma cells. In kind it is cell-based.
Assay [1] has as its system MCF-7 breast cancer cells. In words: Killing of MCF-7 breast cancer cells (qualitative). It is filed as cell-based, human.
In assay [2] the test system is non-malignant NIH-3T3 cells. In words: WST-1 dye reduction viability assay, NIH-3T3. It is filed as cell-based. On the procedure: (§1) A more quantitative assay was carried out using as an endpoint the reduction of a water-soluble tetrazolium dye (WST-1). This method has been employed to follow the effects of various chemotherapeutic agents on malignant cells (Hwang, W. S., Chen, L. M., Huang, S. H., Wang, C. C., Tseng, M. T. Prediction of chemotherapy response in human leukemia using in vitro chemosensitivity test. Leuk Res. 17:685-688, 1993; Pieters, R., Loonen, A. H., Huismans, D. R., Broekema, G. J., Dirven, M. W., Heyenbrok, M. W., Hahlen, K., Veerman, A. J. In vitro drug sensitivity of cells with children with leukemia using the MTT assay with approved culture conditions. Blood 76:2327-2336, 1990).
(§2) Viable cells can reduce the dye; dead cells cannot. The effects on pDBD*4R9 on MCF-7 breast cancer cells and non-malignant NIH-3T3 cells were compared (Table 2).
(§3) 20,000 cells were plated in triplicate in a 96 well plate. 24 hr later, cells were washed once and growth medium was replaced with serum free medium containing pDBD*4R9 (termed ‘Frag49’ in the table) or no peptide (Control) and placed in a tissue culture incubator at 37 deg. After 1 hr, serum-containing medium was added to each well and the plates were reincubated for 5 hr. 20 μl of WST-1 dye was then added to each well, and 4 hr later, Absorbance at 450-595 nm was determined spectrophotometrically. A chemical blank (avg. of 4 wells, medium plus dye only) was subtracted from each raw score.
For orientation: Tetrazolium assays rely on reduction of a dye to a coloured formazan, in cell work by metabolically active cells.

The test system of assay [3] is MCF-7 breast cancer cells. Description: WST-1 dye reduction viability assay, MCF-7. In kind it is cell-based, human. How it is done:
as §1, §2, §3

For assay [4], the system named is breast cancer GT-MCF-7 cells. Description: AlarmarBlue viability assay on GT-MCF-7 cells. In kind it is cell-based, human. Conditions: GT-MCF-7, four-hour treatment. On the procedure:
(§4) For each cell line, the protocol was the same for determining the effects of pDBD*4R9.
Cells were plated in equal numbers and washed free of growth medium. […]
In the experiment on MCF-7 cells, an equivalent assay (AlarmarBlue) was used.

The next assay deals with ICR 27 leukemic cells. In words: Reduction in ICR 27 leukemic cells by exogenous application of peptide (cell count). It is filed as cell-based, human. The note with it: for Cells/ml after 23 h: 1 h in serum-free medium then growth medium, average of duplicate counts; for cell killing: ICR-27, peptide added exogenously without electroporation. How it is done:
At the maximum dose tested in this experiment, pDBD*4R9 caused over a 2-log loss of cells.
At t=0, growing cells were removed from medium, washed, and plated at 4.0×10^6 cells/ml in serum-free medium to which the peptide was added from a stock solution. Control peptide was GnRHR7 (Gonadotropin Releasing Hormone with a 7-arginine polymer added covalently). One hour later cells were diluted into growth medium. After 23 h, each culture was counted in duplicate. Average values are shown. Similar dose-related responses to pDBD*4R9 have been seen in 3 experiments.

For the next assay, the system named is CEM cell clone C1-15. Description: Exogenous peptide on CEM clone C1-15. It is filed as cell-based, human. The note with it: CEM clone C1-15, peptide administered exogenously. On the procedure: (§5) As shown below, pDBD*R9 was administered to CEM cell clones ICR-27, C7-14, and C1-15. Two of these clones are resistant to the synthetic glucocorticoid dexamethasone, commonly used in the treatment of acute lymphoblastic leukemia.

The subject of assay [5] is human leukemic CEM C714 cells. Description: Exogenous peptide on CEM C7-14 leukemic cells (WST viability). In kind it is cell-based. How it is done:
as §5, §4
(§6) Cells were plated in equal numbers and washed free of growth medium.
(§7) The peptide pDBD*4R9 was then added to the cells for one hour, after which they were returned to growth medium.
(§8) At a suitable interval thereafter, they were assayed for viability by use of the WST assay (described above), which measures the ability of viable cells' mitochondria to metabolize and therefore change the color of a water soluble tetrazolium dye (WST). By measuring the absorbance of the color, one has a quantitative correlate of viability: More absorbance=more viable cells.

For assay [6], the system named is basal cell carcinoma cells. Description: Killing of basal cell carcinoma cells. In kind it is cell-based. Conditions: line of basal cell carcinoma cells.
Assay [7] relates to colon cancer line, CaCo-2. In words: WST viability assay, colon cancer line. It is filed as cell-based. On the procedure: as §4, §6, §7, §8
Assay [8] relates to CEM C7-14 lymphoblastic clonal cell line. Description: Electroporation of pDBD*4 into CEM C7-14 cells, cell death. It is filed as cell-based, human. The note with it: transfected by electroporation. From the text: (§9) Derivation of ICR-27 cells is found in Molecular & Cellular Biology (1981) 1:512-21 and of CEM1-15 and CEM7-14 in Genomics (2003) 81:175-97.
The subject of assay [9] is ICR-27 lymphoblastic clonal cell line. Description: Electroporation of pDBD*4 into ICR-27 cells, cell death. It is filed as cell-based, human. Conditions: transfected by electroporation. On the procedure: FIG. 1 (A and B). Human leukemic ICR-27-4 cells were electroporated (500 μF, 300V) with 2 μg pDBD*4 peptide or without peptide (Control). Equal concentrations of cells were then plated and quantified for viable cell numbers over time.
as §9
Equal concentrations of cells were then plated.
In FIG. 1A, cell viability was evaluated after 4 hr using the WST-1 dye reduction assay (8,9). Quadruplicate wells of a 96 well plate each received 200 μl of cells plus 20 μl of WST-1 dye. The plate was then placed in a tissue culture incubator for 4 hours. Spectrophotometric analysis was carried out on a plate reader with Absorbance read at 450-595 nm. Absorbancies were corrected for the average of triplicate chemical blanks (200 μl growth medium plus 20 μl WST-1 dye). Data are presented as percent of control.
In FIG. 1B, cell concentrations were determined after 4 hr. and 24 hr. by hemocytometer counts of duplicate aliquots, with trypan blue dye added in the 24 hr samples to discriminate non-viable, but membrane-intact cells.

Assay [10] has as its system CEM 1-15 lymphoblastic clonal cell line. In words: Electroporation of pDBD*4 into CEM 1-15 cells, cell death. In kind it is cell-based, human. The note with it: transfected by electroporation.
Excerpt: as §9

The subject of assay [11] is cell clones from the CEM leukemic cell system. In words: pDBD*4 in glucocorticoid-susceptible and -resistant clones of the CEM leukemic cell system. In kind it is cell-based, human. How it is done: pDBD*4 was tested in cell clones from the CEM leukemic cell system. Some of those clones are susceptible to apoptotic cell death evoked by steroids of the glucocorticoid class; others are not. Both types of clones were killed by electroporation of pDBD*4 into the cells, whereas exogenous application of pDBD*4 produced no effect.

[12] abbreviates: NIH-3T3, 1 h peptide, 5 h reincubation, 4 h dye, blank subtracted.
[13] abbreviates: MCF-7, 1 h peptide, 5 h reincubation, 4 h dye, blank subtracted.

Where two headings read alike, the source gives them in different places. No end group written: not given here. Bounds are passed on as bounds.

Consider “RRRRRRRRRYLCAGRNDCIIAIKFEEKTAQHAAIENVFRLE (cysteines drawn unpaired) [pDBD*4R9]”, for which the “killing activity / cell death” value is “caused death” in the assay on SWB-39 glioma; “Killing activity” in the assay with SWB-39 glioma (listed as pDBD*R9); “caused death” in assay [1]; “Killing activity” in assay [1] (listed as pDBD*R9); “caused death” in [6]; “Killing activity” in assay [6] (listed as pDBD*R9). Besides, the “metabolism of the tetrazolium dye” value in assay [2] (NIH-3T3, dose of Table 2) was “not significantly altered”. For the same substance, the figures for the “WST-1 Absorbance, 450-595 nm, Well 1” value in assay [2] (setting [12]) and in assay [3] (setting [13]) were 0.199 and 0.045, respectively. Further, the “WST-1 Absorbance, 450-595 nm, Well 2” value in [2] (setting [12]) is 0.216; in assay [3] (setting [13]) it was 0.087. The figures for the “WST-1 Absorbance, 450-595 nm, Well 3” value in assay [2] (setting [12]) and in assay [3] (setting [13]) were 0.196 and 0.289, respectively. Moreover, the “WST-1 Absorbance, 450-595 nm, Avg.” value is given as 0.204 in [2] (NIH-3T3, average of 3 wells) and 0.140 in [3] (MCF-7, average of 3 wells). Also, the “average reduction in ability to metabolize the tetrazolium dye” value in [3] (MCF-7, dose of Table 2) was “over 3 fold”. In addition, the “anticancer effect (FIG. 2)” value in assay [4] is “significant anticancer effects”. Moreover, the entries for the “Cells/ml after 23 h” value in the assay on ICR 27 leukemic cells (5 μM peptide), in the assay on ICR 27 leukemic cells (10 μM peptide) and in the assay on ICR 27 leukemic cells (20 μM peptide) were 1.8 × 10^5 Cells/ml, 1.95 × 10^5 Cells/ml and 0.5 × 10^5 Cells/ml, respectively. Besides, in the assay on ICR 27 leukemic cells (ICR27-4, increasing concentrations), the “cell loss / growth inhibition with increasing concentrations” value was “caused cell loss in a dose-dependent manner”. In addition, the loss of cells in the assay with ICR 27 leukemic cells (ICR27-4, maximum dose tested) is given as > 2 log. Also, the cell killing entry was “killed the cells in a dose dependent manner” in the assay with ICR 27 leukemic cells; “killed in a dose-dependent manner” in the assay on ICR 27 leukemic cells (listed as pDBD*R9); “killed in a dose-dependent manner” in the assay with CEM cell clone C1-15; “killed in a dose-dependent manner” in assay [5] (CEM clone C7-14, peptide administered exogenously). The “anticancer effect (FIG. 3)” value in assay [5] (CEM C714 cells) is “significant anticancer effects”. The Absorbance is 0.08 +/− 0.01 in [7] (Expt 1, 25 microM, duplicates, avg +/- range); 0.16 +/− 0.005 in assay [7] (Expt 1, 50 microM, duplicates, avg +/- range); 0.19 +/− 0.05 in assay [7] (Expt 2, 100 microM, triplicates, avg +/- 1 SD). Also, the estimated cell kill in assay [7] (colon cancer cells, single treatment, 25-100 microM) is on record as 50-75%.

As for “tyr-leu-cys-ala-gly-arg-asn-asp-cys-ile-ile-ala-ile-lys-phe-glu-glu-lys-thr-ala-gln-his-ala-ala-ile-glu-asn-val-phe-arg-leu-glu (YLCAGRNDCIIAIKFEEKTAQHAAIENVFRLE) [pDBD*4, 32-amino acid synthetic polypeptide, portion of the 89 aa peptide encoded by gene 398-465*]”, the cell death result in [8], in assay [9] and in [10] was “causes cell death” throughout. Moreover, the cell killing result in the assay with ICR 27 leukemic cells is listed as “did not”; in assay [11] (electroporation into glucocorticoid-susceptible and non-susceptible CEM clones), “killed”. The effect on cells entry in assay [11] (exogenous application, CEM clones) is on record as “no effect”.
